From US9511111B2, “Methods for the treatment of X-linked hypophosphatemia and related disorders” (WISCONSIN ALUMNI RESEARCH FOUNDATION, priority 2010, dated 2016)
“Also recorded” adds a separate entry of the source.

Tests used:
hyp-mice = test: In vivo daily ip injection of D6R in hyp mice (murine model of XLH); set-up: species or system mouse
Protocol: In vivo injection of D6R in normal and hyp mice: 3-week old normal and hyp mice were randomly separated into two groups for each strain. One group of mice received daily ip injection of saline. […] Blood samples were obtained every 3 days via retro-orbital bleedings. At the end of the in vivo injection period, the animals were euthanized with an overdose of sodium pentobarbital (65 mg/kg). The final blood sample was collected by cardiac puncture for large volume of serum preparation. Kidney and femoral bone samples were collected for total RNA and protein extractions.
(§1) Biochemistry measurements: Serum Pi levels were measured using Phosphorus Liqui-UV kit from Stanbio Laboratory (Boerne, Tex.). Serum Ca levels were measured using calcium Liquicolor kit from Stanbio following the manufacturer's protocols. Serum intact FGF-23 was measured employing a FGF-23 ELISA kit obtained from Kainos Laboratories, Japan. Serum C-terminal FGF-23 was measured using ELISA kit from Immunotopics, CA.
Real-time RT-PCR for mRNA expression: Total RNA was isolated from kidney samples and femurs. The femurs were trimmed of all fat, homogenized into fine powder in liquid nitrogen using porcelain motor and pestle. Total RNA was then extracted using TRIzol Reagent (Invitrogen, CA) following the manufacturer's protocol. Kidney samples were rinsed free of blood using ice-cold PBS buffer. Then the kidney was homogenized in TRIzol Reagent using mortor and pestle. Then, the renal total RNA was isolated following the manufacturer's protocol. RT reactions were performed using Bio-Rad iScript cDNA synthesis kit (Bio-Rad, CA) with poly-A primers. FGF-23 mRNA, as well as Npt2 mRNA and 25(OH)D3-1α-hydroxylase mRNA were quantitated by real-time PCR using gene specific primers.
Western blot for protein expression: Kidney proteins were isolated using sucrose buffer containing 20 mM HEPES, 1 mM EDTA, 255 mM sucrose, 0.4 mM phenylmethylsulfonyl fluoride, and 2 μg/ml leupeptin. The homogenate was centrifuged at 1,500 g for 15 min, and the pellet containing mitochondrial protein, including 25(OH)D-1α-hydroxylase, was re-suspended in the same buffer, aliquoted, and stored at −80° C. until use. The supernatant that contained the plasma membrane protein obtained after centrifugation was also collected for the measurement of Npt2 protein. Bone samples were homogenized into fine powder in liquid nitrogen. Protein contents were isolated using T-PER tissue protein extraction reagent with Halt protease inhibitor cocktail (Thermo Scientific, Rockford, Ill.).
A 20 μg aliquot of the respective protein extracts was electrophoresed in 10% SDS-PAGE gel and transferred onto a nitrocellulose membrane. The membrane was then washed and probed with specific antibodies and subsequently with specific secondary antibodies conjugated with HRP. To quantitate the immunoblotting signal, 6 ml of chemiluminescence detection solution (ECL plus, Amersham, UK) was added, and the signal was detected directly by the fluorescent scanner (Storm 860, Amersham, UK). Band density was analyzed using ImageQuant 5.2 software (Molecular Dynamics, Sunnyvale, Calif.). The antibody was then removed by incubating the membrane in reprobing solution (62.5 mM Tris-HCl, 2% SDS, and 100 mM 2-mercaptoethanol, pH 6.7) for 30 min, 50° C. The membrane was then blocked and probed with specific anti-β-actin antibody to verify the loading equivalence among samples.
High-resolution radiography (x-ray) for the femus: mouse femurs were extracted and incubated in lysis buffer (2×SSC, 0.2% SDS, 10 mM EDTA, 10 mg/ml proteinase K) for 2 days. After the surrounding muscles were digested, the femurs were washed in PBS buffer and X-rayed on a Faxitron model MX-20 Specimen Radiography System with a digital camera attached (Faxitron x-ray Corp., Buffalo Grove, Ill.). […]

normal mice = test: In vivo daily ip injection of D6R in normal mice; set-up: species or system mouse; details: D6R treated, daily ip for 5 weeks, saline 200 ± 15.5, p<0.001
Protocol: In vivo injection of D6R in normal and hyp mice: 3-week old normal and hyp mice were randomly separated into two groups for each strain. One group of mice received daily ip injection of saline. The other group of mice received daily ip injection of D6R 1.5 μg/kg/day for 5 weeks. Blood samples were obtained every 3 days via retro-orbital bleedings. At the end of the in vivo injection period, the animals were euthanized with an overdose of sodium pentobarbital (65 mg/kg). The final blood sample was collected by cardiac puncture for large volume of serum preparation. Kidney and femoral bone samples were collected for total RNA and protein extractions.
as §1

SPC2 [1] = test: SPC2 activity in hTert osteoblasts (MOB) in culture; format: cell-based; details: D6R 50 μM, p<0.01
Protocol: (§2) The dose-dependent effects of D6R (0-200 μM) on SPC2 activity in hTert osteoblasts (MOB) and MC3T3 osteoblasts in culture were also examined. […] Treatment of MC3T3 cells for a similar period likewise increased enzyme activity at 200 μM (124±14 vs 171±7 fluorescent units/min; p<0.05). Treatment of the MOB cell line with D6R, and the resulting increase in SPC2 enzyme activity decreased Fgf23 mRNA expression (1.0±0.7 vs 0.2±0.1 fold; p<0.001).

SPC2 [2] = test: SPC2 activity in MC3T3 osteoblasts in culture; format: cell-based; details: MC3T3 cells, D6R 200 μM, similar period (48 hours); control 124±14; p<0.05
Protocol: as §2

[3] = tested on: MOB cells (hTert osteoblasts); test: mRNA expression in MOB cell line treated with D6R; format: cell-based
Protocol: as §2

hexa-D-arginine [D6R]
mineral apposition rate (hyp-mice; D6R treated hyp-mice, FIGS. 12-13): normalization; also recorded: restoration of normal bone mineral apposition rate | serum FGF23 concentration (hyp-mice; Hyp-mice, D6R treated, daily ip for 5 weeks, saline 2126 ± 281, p<0.001): 1682 ± 191 | bone modeling (long bone circumference) (hyp-mice; hyp mouse): decreased to normal | length of the long bones in the extremities (hyp-mice; hyp mouse): increased | renal 25(OH)D3-1α-hydroxylase activity (translational abnormality) (hyp-mice; hyp mouse): normalized | degradation of serum FGF23 (hyp-mice; hyp mouse, D6R treatment, FIG. 3B): increased | degradation of intact FGF23 in hyp-mouse bone (hyp-mice; hyp mouse, ip x 5 weeks): enhanced | Fgf23 mRNA expression (hyp-mice; hyp mouse, ip x 5 weeks, FIG. 3A): decreased | Npt2a mRNA (hyp-mice; hyp mouse, kidney, FIGS. 2A-B): normalization | renal phosphate wasting and serum phosphorus levels (hyp-mice; hyp mouse, FIG. 1): normalization | Sost mRNA and the coded protein Sclerostin (hyp-mice; hyp mouse, FIG. 4): suppression | bone 7B2 mRNA expression (hyp-mice; hyp mouse, FIG. 5): stimulation | bone density normalization (hyp-mice; hyp mouse, FIG. 9): increasing | Osteoid surface/Bone surface (OS/BS) (hyp-mice; hyp mouse, FIG. 11A): decreasing | Mineralized area/Total Area (MA/TA ratios) (hyp-mice; hyp mouse, FIG. 11B): enhancing | rickets and osteomalacia (hyp-mice; hyp mouse, FIGS. 6-13): cured | serum FGF23 concentration (normal mice): 120 ± 12.5 | SPC2 activity, h-Tert osteoblasts (SPC2 [1]; control 121 ± 18): 329 ± 17 fluorescent units | SPC2 activity (SPC2 [1]; hTert osteoblasts, 48 hours, control 121±18): 329±17 fluorescent units/min | SPC2 enzyme activity (SPC2 [2]): 171±7 fluorescent units/min | Fgf23 mRNA expression ([3]; MOB cell line treated with D6R, control 1.0±0.7, p<0.001): 0.2±0.1 fold | SPC2 mRNA expression ([3]; MOB cells treated with D6R): without alteration | 7B2 mRNA expression ([3]; MOB cells treated with D6R, control 1.0±0.2, p<0.001): 3.6±0.4 fold
